Test [1] relates to liposarcoma patient-derived xenograft (LP-19-0029 PDX). Put plainly: Antitumor activity in subcutaneous liposarcoma patient-derived xenograft (LP-19-0029 PDX) model. The format is in vivo, Balb/c nude mice. The note with it: for T/C (%) @D 21 / RTV @D 21: Embodiment 2, day 21, Compound C 80 mg/kg p.o. Q2D x 16D, Palbociclib 50 mg/kg p.o. QD x 3W; for RTV @D 21: mean ± SEM, n=5; for RTV @D 22 / T/C(%) @D 22: day 22, Compound C 40 mg/kg p.o. q.2d x 3w, Palbociclib 50 mg/kg p.o. q.d x 3w, Ribociclib 75 mg/kg p.o. q.d x 3w. From the text:
Animals: Balb/c nude, female, 6-8 weeks, weighing approximately 18-22 g. A total of 40 (20 plus 100%) will be needed for the study, which will be purchased from Shanghai SLAC Laboratory Animal Co., LTD. Generation of the subcutaneous liposarcoma patient-derived xenograft (LP-19-0029 PDX) Model: The LP-19-0029 PDX model was originally established from a surgically resected clinical sample (cancer type: liposarcoma; pathology diagnosis: dedifferentiated liposarcoma), and implanted in nude mice defined as passage 0 (P0). The next passage implanted from P0 tumor was defined as passage 1 (P1), and so on during continual implantation in mice. The frozen tumor fragments will be revived in NOD SCID mice, when the tumors develop to suitable size, they will be passaged to Balb/c nude mice. The P4-P7 tumors will be used for the study. Each mouse was implanted subcutaneously at the right flank with the LP-19-0029 P4 tumor slices (about 30 mm^3) for tumor development. Treatments were started when the average tumor size reached approximately 150 mm^3. The animals were assigned into groups using an Excel-based randomization software performing stratified randomization based upon their tumor volumes. Each group consisted of 5 tumor-bearing mice. [table] Tumor volumes were measured twice weekly in two dimensions using a caliper, and the volume was expressed in mm^3 using the formula: Tumor Volume(mm^3)=0.5a×b^2 where a and b are the long and short diameters of the tumor, respectively. Relative tumor volume (RTV) was calculated using the following formula: RTV=Vt/Vl where Vl and Vt are the average tumor volumes on the first day of treatment (day 1) and the average tumor volumes on a certain time point (day t). Synergy score was calculated using the following formula described in Clarke R. Issues in experimental design and endpoint analysis in the study of experimental cytotoxic agents in vivo in breast cancer and other models[J]. Breast Cancer Research & Treatment, 1997, 46(2-3):255-278, which is incorporated by reference in its entirety: Synergy score=(([…]); where A is RTV value of drug A; B is RTV value of drug B; C is RTV value of vehicle control. AB is RTV value of combination treatment with A and B. Synergy scores: >1 represents synergistic, =1 represents additive, <1 represents antagonistic (referring to Gould S E et al. Translational value of mouse models in oncology drug development. Nature medicine. 2015 21, 431-439). Standard NCI procedures were used to calculate tumor parameters. Percent tumor growth inhibition (% T/C) was calculated as the mean RTV of treated tumors (T) divided by the mean RTV of control tumors (C)×100%. The percentage T/C value is an indication of antitumor effectiveness: a value of T/C<42% is considered significant antitumor activity by the NCI. A T/C value<10% is considered to indicate highly significant antitumor activity, and is the level used by the NCI to justify a clinical trial if toxicity and certain other requirements are met (termed DN-2 level activity). A body weight loss nadir (mean of group) of greater than 20%, or greater than 20% of drug deaths are considered to indicate an excessively toxic dosage. Summary statistics, including mean and the standard error of the mean (SEM), are provided for the tumor volume of each group at each time point. Statistical analysis of difference in the tumor volume among the groups were conducted on the data obtained at the best therapeutic time point after the final dose. A one-way ANOVA was performed to compare the tumor volume and the tumor weight among groups, and when a significant F-statistics (a ratio of treatment variance to the error variance) was obtained, comparisons between groups were carried out with Games-Howell test. All data were analyzed using SPSS 17.0. p<0.05 is considered to be statistically significant. […]
In general terms: In xenograft studies the graft and the host belong to different species.

Test [2] relates to lung cancer patient-derived xenograft (LU-01-0448 PDX). Put plainly: Antitumor activity in subcutaneous lung cancer patient-derived xenograft (LU-01-0448 PDX) model. It counts as in vivo, mice. As to conditions: Embodiment 4; for mRECIST / Response @ D 33: animals per category, PD progressive disease, SD stable disease, PR partial response; for T/C(%) @ D 33 / RTV @ D 33 / Response @ D 33: day 33; for T/C(%) @ D 33 / RTV @ D 33: Compound C 100 mg/kg p.o. QD x 5 D, Palbociclib 50 mg/kg p.o. QD x 21 D; for RTV @ D 33: n=2. The protocol:
Tumor volumes were measured twice weekly in two dimensions using a caliper, and the volume was expressed in mm^3 using the formula: Tumor Volume(mm^3)=0.5a×b^2 Relative tumor volume (RTV) was calculated using the following formula: RTV=Vt/Vl Synergy score=(([…]); where A is RTV value of drug A; B is RTV value of drug B; C is RTV value of vehicle control. AB is RTV value of combination treatment with A and B. Synergy scores: >1 represents synergistic, =1 represents additive, <1 represents antagonistic (referring to Gould S E et al. Translational value of mouse models in oncology drug development. Nature medicine. 2015 21, 431-439). Standard NCI procedures were used to calculate tumor parameters. Percent tumor growth inhibition (% T/C) was calculated as the mean RTV of treated tumors (T) divided by the mean RTV of control tumors (C)×100%. The percentage T/C value is an indication of antitumor effectiveness: a value of T/C<42% is considered significant antitumor activity by the NCI. A T/C value<10% is considered to indicate highly significant antitumor activity, and is the level used by the NCI to justify a clinical trial if toxicity and certain other requirements are met (termed DN-2 level activity). A body weight loss nadir (mean of group) of greater than 20%, or greater than 20% of drug deaths are considered to indicate an excessively toxic dosage. Compound C was further tested in combination with palbociclib in another patient-derived xenograft model (LU-01-0448 PDX model). LU-01-0448 PDX model was a subcutaneous lung cancer patient-derived xenograft model, which was established according to the procedures of LP-19-0029 PDX model in embodiment 2. This experiment was carried out according to Table 4 and the procedures described in embodiment 2. [table]

Several values for one entry are separate records, joined by “and”; a condition that tells them apart may be missing. Equal values may be shown once.

On to `CCN1[C@@H](C(=O)NC23CCC(C(=O)O)(CC2)CC3)[C@H](c2cccc(Cl)c2F)[C@]2(C(=O)Nc3cc(Cl)ccc32)C12CCCCC2` [Compound C, 4-((3′R,4′S,5′R)-6″-Chloro-4′-(3-chloro-2-fluorophenyl)-1′-ethyl-2″-oxodispiro[cyclohexane-1,2′-pyrrolidine-3′,3″-indoline]-5′-carboxamido)bicyclo[2.2.2]octane-1-carboxylic acid], for which, in test [1], the “T/C (%) @D 21” value stood at 22.28% and the “RTV @D 21” value is listed as 4.83 ± 1.56. Also, the “T/C (%) @D 21” value in test [1] (listed as compound C) was 22%. The “RTV @35” value in test [1] (Embodiment 3, @35, Compound C 40 mg/kg, Palbociclib 50 mg/kg, Ribociclib 75 mg/kg) is reported as 10.95 ± 1.66. In addition, in test [1] (Embodiment 3), the “RTV @D 22” value was determined as 5.24 ± 0.61; the “T/C(%) @D 22” value was 38.4% and 38.44%. In test [2], the mRECIST is listed as 2/2 SD, the “T/C(%) @ D 33” value turned out to be 41.43%, the “RTV @ D 33” value was determined as 4.85 ± 1.85 and the “Response @ D 33” value is given as 2/2 PD.
Turning to `CC(=O)c1c(C)c2cnc(Nc3ccc(N4CCNCC4)cn3)nc2n(C2CCCC2)c1=O` [Palbociclib, palbociclib], in test [1], the “T/C (%) @D 21” value is 70% and the “RTV @D 21” value turned out to be 15.19 ± 1.31. In addition, in test [1] (Embodiment 3), the “RTV @D 22” value is reported as 11.36 ± 0.96 and the “T/C(%) @D 22” value came to 83.50%. The “T/C(%) @D 22” value in test [1] (Embodiment 3, listed as palbociclib) worked out at 83.5%. Also, in test [2], the mRECIST is recorded as 2/2 PD, the “T/C(%) @ D 33” value is 35.71%, the “RTV @ D 33” value worked out at 4.18 ± 0.80 and the “Response @ D 33” value is listed as 2/2 PD.
With `CN(C)C(=O)c1cc2cnc(Nc3ccc(N4CCNCC4)cn3)nc2n1C1CCCC1` [Ribociclib, ribociclib], in test [1] (Embodiment 3), the “RTV @D 22” value is 9.77 ± 1.22 and the “T/C(%) @D 22” value is listed as 71.70%. In test [1] (Embodiment 3, listed as ribociclib), the “T/C(%) @D 22” value was 71.7%.

Values taken from US11452716B2, “Pharmaceutical composition and use thereof” (Ascentage Pharma (Suzhou) Co., Ltd., priority 2018, dated 2022).
